Measured values as given in US10975060B2, “High relaxivity gadolinium chelate compounds for use in magnetic resonance imaging” (BAYER PHARMA AKTIENGESELLSCHAFT, priority 2016, dated 2021).
Entries after “also recorded” stand apart in the source; their conditions may differ.

What was measured:
[1] = Relaxivity measurements at 1.4 T (MiniSpec mq60, 60 MHz, 37 °C) in water and human plasma; format: physicochemical; settings: 1.41 T, normalized to Gd
Summary of the method: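 T1 by inversion recovery and T2 by CPMG, relaxation delay ≥5×T1, at three Gd concentrations between 0.05 and 2 mM in water or fresh citrated human plasma. Relaxivities r1, r2 taken as slopes of relaxation rate versus Gd concentration, verified by ICP-MS.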

[2] = Relaxivity measurements at 3.0 T (whole body MRI scanner, 37 °C) in water and human plasma; format: physicochemical; settings: normalized to Gd, average ± standard deviation
Summary of the method: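 T1 relaxivity measured on a 3.0 T whole-body MRI scanner at 37 °C in water and fresh citrated human plasma; inversion-recovery sequence, TE 7.46 ms, TIs 50–4500 ms. Three concentrations per compound between 0.05 and 2 mM; ri derived from slope of Ri versus Gd-normalised concentration.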

[3] = Chemical stability: autoclaving at 121 °C for 20 min in 10 mM Tris-HCl pH 7.4, HPLC-ICP-MS; format: physicochemical; settings: 5 mmol Gd/L in 10 mM Tris-HCl pH 7.4, 121 °C
Experimental: The aliquot removed before and after autoclaving was analyzed by HPLC-ICP-MS to determine the integrity of the compound.
HPLC: Column: Hypercarb 2.5 mm×15 cm. Solvent A: 0.1% formic acid in water. Solvent B: acetonitrile. Gradient from 100% A to 5% A+95% B in 10 min. Flow 1 ml/min. Detection by ICP-MS, tuned to ^158Gd. The chromatograms, displaying the intensity of the detected Gd, were visually compared. No changes in the chromatograms before and after autoclaving were detected. The compound was stable during the autoclaving procedure.

[4] = Gd-complex stabilities in human plasma at 37 °C, 15 d (released Gd3+ by HPLC-ICP-MS); format: in vitro ADME
Experimental: Gd-Complex Stabilities in Human Plasma at 37° C., 15 d
Example 1 was separately dissolved in human plasma at 1 mmol Gd/L. As a reference for released Gd^3+ 0.1 mmol/L Gadolinium chloride (GdCl3) was dissolved in human plasma. The plasma samples were incubated for 15 days at 37° C. under 5% CO2 atmosphere to maintain the pH at 7.4. Aliquots were taken at the start and end of the incubation. The amount of Gd^3+ released from the complexes was determined by HPLC-ICP-MS. Column: Chelating Sepharose (HiTrap, 1 mL). Solvent A: 10 mM BisTris-HCl pH 6.0. Solvent B: 15 mM HNO3. Gradient: 3 min at 100% A, from 3 to 10 min at 100% B. Flow 1 mL/min. Detection by ICP-MS, tuned to ^158Gd. The chromatograms, displaying the intensity of the detected Gd, were evaluated by peak area analysis. The size of the peak of Gd^3+, eluting after the change from solvent A to B, was recorded. For Example 1 the increase of this peak and thus the release of Gd^3 after 15 days was below the limit of quantification (<0.1% of the injected total amount of Gadolinium). Example 1 is stable under physiological conditions.

[5] = Water solubility (exploratory, 10 mM Tris-HCl, 20 °C); format: physicochemical; settings: water (10 mM Tris-HCl buffer), pH 7.4
Experimental: The exploratory water solubilities of the compounds were determined at room temperature (20° C.) in 0.5 mL buffer solution (10 mM Tris-HCl) in the microcentrifuge tubes (Eppendorf, 2.0 mL safe-lock caps). The solid compounds were added stepwise to the buffer solution. The suspension was mixed using a shaker (Heidolph Reax 2000) and treated 5 min in an ultrasound bath (Bandelin, Sonorex Super RK255H).

[6] = Dynamic CT diffusion phantom study (dialysis cassette in fetal bovine serum); format: physicochemical; settings: dialysis cassette 20,000 MWCO, 20 mmol Gd/L, CT signal over 30 h
Summary of the method: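 Contrast agent at 20 mmol Gd/L in a 20 kDa MWCO dialysis cassette was placed in fetal bovine serum. Diffusion was followed by clinical CT at 100 kV and 104 mA at time points from 0 min to 30 h. Regions of interest were drawn on one central 2.4 mm slice per time point.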

[7] = Pharmacokinetic parameters of blood plasma levels after i.v. bolus in male rats (three compartment model); format: in vivo, rats (Han-Wistar)
Experimental: Pharmacokinetic parameters of Example 6 were determined in male rats (Han-Wistar, 235-270 g, n=3). The compound was administered as a sterile aqueous solution (53.8 mmol Gd/L) as a bolus in the tail vein of the animals. The dose was 0.1 mmol Gd/kg. Blood was sampled 1, 3, 5, 10, 15, 30, 60, 90, 120, 240, 360, 480, and 1440 min post injection and the Gd concentration was determined by Inductively Coupled Plasma Mass Spectrometry (ICP-MS Agilent 7500a, Waldbronn, Germany). The blood level was converted to plasma concentrations by division by 0.625 (plasma fraction of rat blood, assuming strictly extracellular distribution). As a control, 3 animals (Han-Wistar, 248-289 g), were treated in the same way with Reference Compound 1 (Gadovist®), a low molecular weight contrast agent.
The fit of the obtained data to a three compartment model (Phoenix-WinNonlin) yielded the pharmacokinetic parameters which are shown in Table 3.

[8] = Contrast-enhanced magnetic resonance angiography (CE-MRA) at 1.5 T, intraindividual comparison; format: in vivo, New Zealand white rabbits; settings: rabbits
Experimental: Reference compound 1 (Gadovist®), as an approved representative of the Gadolinium-based MRI contrast agents, was used in both dose protocols (100 μmol Gd/kg bw and 25 μmol Gd/kg bw) and compared to example compound 6 (25 μmol Gd/kg bw).
The contrast-enhanced magnetic resonance angiography study was performed at a clinical 1.5 T Scanner (Magnetom Avanto Fit, Siemens Healthcare, Erlangen, Germany). For optimal signal exploitation, a spine in combination with a body-flex coil was used for the data acquisition. The study was performed on male New Zealand white rabbits (weight 3.6-3.9 kg, n=4, Charles River Kisslegg). The animals received all 3 contrast protocols within one imaging session. The order of the contrast protocols was randomized between the animals.
All animals are initially anesthetized using a body weight-adjusted intramuscular injection of a mixture (1+2) of xylazine hydrochloride (20 mg/mL, Rompun 2%, Bayer Vital GmbH, Leverkusen, Germany) and ketamine hydrochloride (100 mg/mL, Ketavet, Pfizer, Pharmacia GmbH, Berlin, Germany) using 1 mL/kg body weight. The continuous anesthesia of the intubated animals (endotracheal tube, Rueschelit Super Safe Clear, cuff 3.0 mm, Willy Ruesch A G, Kernen, Germany) is achieved by the intravenous injection of 0.9 mg propofol per kilogram per hour (10 mg/mL, Propofol-Lipuro 1%, B. Braun Melsungen A G, Melsungen, Germany). The continuous intravenous injection is performed using a MR infusion system (Continuum MR Infusion System, Medrad Europe B. V., A E Beek, Germany). The tracheal respiration (SV 900C, Maquet, Rastatt, Germany) is performed with 55% oxygen, forty breaths per minute, and a breathing volume of 4 mL per kilogram body weight per minute.
Based on a localizer MRI sequence oriented in coronal, axial, and sagittal directions the anatomic course of the aorta is acquired. A small intravenous test bolus (0.2 mL, Reference compound 1 followed by 1.3 mL saline) was administered to determine the time to peak interval (descending aorta) using a test bolus sequence. The MRA delay time between the start of the contrast injection and the start of image acquisition was calculated by subtracting the time to k-space center from the time to peak interval. For MRA a 3D FLASH sequence (TR=3.3 ms, TE=1.2 ms, flip=25°) was acquired before and after injection of the contrast agent considering the delay time. Both measurements were performed within expiratory breath hold. The time interval for the intraindividual comparison between the different contrast agent applications was twenty to thirty minutes.
Quantitative image evaluation was performed on the subtraction images (post contrast—baseline). […]

[9] = i.v. bolus 0.1 mmol Gd/kg, mean, n=3
[10] = subtraction images, carotid artery, aorta, renal arteries

CN(CC(=O)NCC(CNC(=O)CN(C)C(=O)CN1CCN(CC(=O)[O-])CCN(CC(=O)[O-])CCN(CC(=O)[O-])CC1)(CNC(=O)CN(C)C(=O)CN1CCN(CC(=O)[O-])CCN(CC(=O)[O-])CCN(CC(=O)[O-])CC1)CNC(=O)CN(C)C(=O)CN1CCN(CC(=O)[O-])CCN(CC(=O)[O-])CCN(CC(=O)[O-])CC1)C(=O)CN1CCN(CC(=O)[O-])CCN(CC(=O)[O-])CCN(CC(=O)[O-])CC1.[Gd+3].[Gd+3].[Gd+3].[Gd+3] [Example 1, Tetragadolinium [4,10-bis(carboxylatomethyl)-7-{3,13-dimethyl-8,8-bis({[(methyl{[4,7,10-tris(carboxylatomethyl)-1,4,7,10-tetraazacyclododecan-1-yl]acetyl}amino)-acetyl]amino}methyl)-2,5,11,14-tetraoxo-15-[4,7,10-tris(carboxylatomethyl)-1,4,7,10-tetraazacyclododecan-1-yl]-3,6,10,13-tetraazapentadec-1-yl}-1,4,7,10-tetraazacyclo-dodecan-1-yl]acetate]
r1 human plasma [1]: 11.7 L/mmol/s | r1 water [1]: 10.1 L/mmol/s | r1 human plasma ([2]; human plasma): 10.3 ± 0.2 L/mmol/s | r1 water ([2]; water): 9.1 ± 0.1 L/mmol/s | appearance of the solution after autoclaving [3]: clear and colorless | changes in the chromatograms (HPLC-ICP-MS) before and after autoclaving [3]: No changes | stability during the autoclaving procedure [3]: stable | release of Gd3+ after 15 days ([4]; 1 mmol Gd/L, pH 7.4, below the limit of quantification): < 0.1 % of the injected total amount of Gadolinium | stability under physiological conditions ([4]; 15 days): stable | Solubility [5]: >1000 mg/100 mL | Diffusion half-live (20 kDa) [6]: 10.4 h

CC(C)CN(CC(=O)NCC(CNC(=O)CN(CC(C)C)C(=O)CN1CCN(CC(=O)[O-])CCN(CC(=O)[O-])CCN(CC(=O)[O-])CC1)(CNC(=O)CN(CC(C)C)C(=O)CN1CCN(CC(=O)[O-])CCN(CC(=O)[O-])CCN(CC(=O)[O-])CC1)CNC(=O)CN(CC(C)C)C(=O)CN1CCN(CC(=O)[O-])CCN(CC(=O)[O-])CCN(CC(=O)[O-])CC1)C(=O)CN1CCN(CC(=O)[O-])CCN(CC(=O)[O-])CCN(CC(=O)[O-])CC1.[Gd+3].[Gd+3].[Gd+3].[Gd+3] [Example 6, Tetragadolinium {4,10-bis(carboxylatomethyl)-7-[3-isobutyl-8,8-bis({[(isobutyl{[4,7,10-tris(carboxylatomethyl)-1,4,7,10-tetraazacyclododecan-1-yl]acetyl}amino)acetyl]-amino}methyl)-15-methyl-2,5,11-trioxo-13-{[4,7,10-tris(carboxylatomethyl)-1,4,7,10-tetraazacyclododecan-1-yl]acetyl}-3,6,10,13-tetraazahexadec-1-yl]-1,4,7,10-tetraaza-cyclododecan-1-yl}acetate]
r1 human plasma [1]: 14.1 L/mmol/s | r1 water [1]: 11.6 L/mmol/s | pharmacokinetic compared to that of the reference compound 1 ([7]; 0.1 mmol Gd/kg i.v.): very similar | AUC∞ Area under the curve (to infinity) [7, 9]: 10801 µmol·min/L | MRT Mean residence time [7, 9]: 40.7 min | V1 + V2 Volume, compartments V1 + V2 [7, 9]: 0.14 L/kg | V2 Volume, compartment V2 [7, 9]: 0.12 L/kg | Vd, ss Volume of distribution at steady state [7, 9]: 0.27 L/kg | t½ α Half-life, compartment V1 [7, 9]: 2.45 min | t½ β Half-life, compartment V2 [7, 9]: 22.4 min | t½ γ Half-life, compartment V3 [7, 9]: 1041 min | Solubility [5]: >1000 mg/100 mL | vascular contrast (MR-angiograms, qualitative) at 25 μmol/kg compared to reference compound 1 at 100 μmol/kg ([8]; example compound 6 at 25 μmol Gd/kg bw): No qualitative difference | signal enhancement at vascular regions, 25 μmol/kg compared to reference compound 1 at reduced (identical) dose (25 μmol/kg) [8, 10]: significantly (p<0.001) higher | signal enhancement at vascular regions, 25 μmol/kg compared to reference compound 1 at standard dose (100 μmol/kg) [8, 10]: No significant difference; also recorded: similar | Diffusion half-live (20 kDa) [6]: 15.0 h
